Assay results reported in patent EP4289427A1, “DIHYDRO[1,8]NAPHTHYRIDIN-7-ONE AND PYRIDO[3,2-B][1,4]OXAZIN-3-ONE FOR USE IN TREATING CANCER, AND METASTASES IN PARTICULAR” (Anagenesis Biotechnologies, priority 2022, dated 2023).

Legend:
[1] = test system: EoL-1 cells; experiment: Cytotoxicity assay (CellTiter-Glo 2.0) on EoL-1 cells; assay type: cell-based, Human; details: incubation 1 day; for IC50: Homo sapiens, EOL1, 24 h; for Cytotoxicity: test concentration or dose not given here
Method in brief: (§1)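 Seed cells day 0 in respective growth medium; add compounds; incubate for line-specific time; add CellTiter-Glo 2.0, shake, 10 min RT dark; read luminescence; calculate viability and relative IC50.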

[2] = test system: RD cells; experiment: Cytotoxicity assay (CellTiter-Glo 2.0) on RD cells; assay type: cell-based, Human; details: for IC50: Homo sapiens; for Cytotoxicity: test concentration or dose not given here
Method in brief: as §1

[3] = test system: HUVECs; experiment: Tube formation assay (anti-angiogenic activity); assay type: cell-based, human; details: for IC50: Homo sapiens, HUVEC; for Angiogenesis inhibition: test concentration or dose not given here
Method in brief: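 HUVECs plated at 5000 cells/well on reduced growth factor basement membrane matrix, then exposed to compounds for 16 to 18 hours at 37°C. Cells stained with calcein-AM; tube networks imaged by confocal fluorescence microscopy and quantified.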

[4] = test system: 4T1 cells; experiment: Cytotoxicity assay (CellTiter-Glo 2.0) on 4T1 cells; assay type: cell-based, Mouse; details: incubation 2 days; for IC50: Mus musculus, 48 h; for Cytotoxicity: test concentration or dose not given here
Method in brief: as §1

[5] = test system: MDA-MB-231 cells; experiment: Cytotoxicity assay (CellTiter-Glo 2.0) on MDA-MB-231 cells; assay type: cell-based, Human; details: incubation 3 days; for IC50: Homo sapiens, 72 h; for Cytotoxicity: test concentration or dose not given here
Method in brief: as §1

| SMILES | IC50 [1] [nM] | Cytotoxicity [1] | Cytotoxicity ([2]; 2 day-treatment) | Cytotoxicity ([2]; 4 day-treatment) | IC50 ([2]; 48 h, 2 day-treatment) [nM] | IC50 ([2]; 96 h, 4 day-treatment) [nM] | IC50 ([3]; incubation 16 to 18 hours) [nM] | Angiogenesis inhibition ([3]; incubation 16 to 18 hours) | IC50 [4] [nM] | Cytotoxicity [4] | IC50 [5] [nM] | Cytotoxicity [5] | other results |
| --- | --- | --- | --- | --- | --- | --- | --- | --- | --- | --- | --- | --- | --- |
| CSc1cc(Oc2ccnc3c2OCC(=O)N3)ccc1NC(=O)Nc1cc(C(C)(C)C)nn1-c1ccc(C)nc1 [Compound 019, 1-[5-tert-butyl-2-(6-methyl-3-pyridyl)pyrazol-3-yl]-3-[2-methylsulfanyl-4-[(3-oxo-4H-pyrido[3,2-b][1,4]oxazin-8-yl)oxy]phenyl]urea] | 1 to 10 | +++ (cytotoxicity ≥ 85%) | ++ (50% ≤ cytotoxicity < 85%) | ++ (50% ≤ cytotoxicity < 85%) | 1000 to 5000 | 1000 to 5000 | < 100 | +++ (angiogenesis inhibition ≥ 80%) | 1000 to 5000 | +++ (cytotoxicity ≥ 85%) | 1000 to 5000 | ++ (50% ≤ cytotoxicity < 85%) | – |
| CC(C)(C)c1cc(NC(=O)Nc2ccc(Oc3ccnc4c3OCC(=O)N4)cc2C(F)(F)F)on1 [Compound 037, 1-(3-tert-butylisoxazol-5-yl)-3-[4-[(3-oxo-4H-pyrido[3,2-b][1,4]oxazin-8-yl)oxy]-2-(trifluoromethyl)phenyl]urea] | 1 to 10 | +++ (cytotoxicity ≥ 85%) | ++ (50% ≤ cytotoxicity < 85%) | ++ (50% ≤ cytotoxicity < 85%) | 5000 to 10000 | 1000 to 5000 | 100 to 500 | ++ (80% > angiogenesis inhibition ≥ 50%) | 1000 to 5000 | +++ (cytotoxicity ≥ 85%) | 1000 to 5000 | ++ (50% ≤ cytotoxicity < 85%) | – |
| CC(C)(C)c1cc(NC(=O)Nc2ccc(Oc3ccnc4c3OCC(=O)N4)cc2C(F)(F)F)n(-c2cccc(CN3CCOCC3)c2)n1 [Compound 044, 1-[5-tert-butyl-2-[3-(morpholinomethyl)phenyl]pyrazol-3-yl]-3-[4-[(3-oxo-4H-pyrido[3,2-b][1,4]oxazin-8-yl)oxy]-2-(trifluoromethyl)phenyl]urea] | 10 to 100 | ++ (50% ≤ cytotoxicity < 85%) | + (20 % ≤ cytotoxicity < 50%) | + (20 % ≤ cytotoxicity < 50%) | ≥ 10000 | ≥ 10000 | 100 to 500 | +++ (angiogenesis inhibition ≥ 80%) | 1000 to 5000 | +++ (cytotoxicity ≥ 85%) | 5000 to 10000 | + (20 % ≤ cytotoxicity < 50%) | – |
| CSc1cc(Oc2ccnc3c2CCC(=O)N3)ccc1NC(=O)Nc1ncc(C(C)(C)C)s1 [Compound 004, 1-(5-(tert-butyl)thiazol-2-yl)-3-(2-(methylthio)-4-((7-oxo-5,6,7,8-tetrahydro-1,8-naphthyridin-4-yl)oxy)phenyl)urea] | 1 to 10 | +++ (cytotoxicity ≥ 85%) | + (20 % ≤ cytotoxicity < 50%) | ++ (50% ≤ cytotoxicity < 85%) | 1000 to 5000 | 1000 to 5000 | 100 to 500 | +++ (angiogenesis inhibition ≥ 80%) | 1000 to 5000 | +++ (cytotoxicity ≥ 85%) | < 1000 | ++ (50% ≤ cytotoxicity < 85%) | – |
| CC(C)(C)c1cc(NC(=O)Nc2ccc(Oc3ccnc4c3CCC(=O)N4)cc2C(F)(F)F)n(-c2cccc(CN3CCOCC3)c2)n1 [Compound 045, 1-[5-tert-butyl-2-[3-(morpholinomethyl)phenyl]pyrazol-3-yl]-3-[4-[(7-oxo-6,8-dihydro-5H-1,8-naphthyridin-4-yl)oxy]-2-(trifluoromethyl)phenyl]urea] | 10 to 100 | ++ (50% ≤ cytotoxicity < 85%) | + (20 % ≤ cytotoxicity < 50%) | + (20 % ≤ cytotoxicity < 50%) | 5000 to 10000 | 5000 to 10000 | 100 to 500 | +++ (angiogenesis inhibition ≥ 80%) | < 1000 | +++ (cytotoxicity ≥ 85%) | 1000 to 5000 | ++ (50% ≤ cytotoxicity < 85%) | – |
| CSc1cc(Oc2ccnc3c2CCC(=O)N3)ccc1NC(=O)Nc1cc(C(C)(C)C)nn1-c1ccc(CN2CCOCC2)cc1 [Compound 042, 1-[5-tert-butyl-2-[4-(morpholinomethyl)phenyl]pyrazol-3-yl]-3-[2-methylsulfanyl-4-[(7-oxo-6,8-dihydro-5H-1,8-naphthyridin-4-yl)oxy]phenyl]urea] | 1 to 10 | +++ (cytotoxicity ≥ 85%) | ++ (50% ≤ cytotoxicity < 85%) | ++ (50% ≤ cytotoxicity < 85%) | 1000 to 5000 | 1000 to 5000 | < 100 | +++ (angiogenesis inhibition ≥ 80%) | < 1000 | +++ (cytotoxicity ≥ 85%) | 1000 to 5000 | ++ (50% ≤ cytotoxicity < 85%) | – |
| CN(C)Cc1cccc(-n2nc(C(C)(C)C)cc2NC(=O)Nc2ccc(Oc3ccnc4c3OCC(=O)N4)cc2C(F)(F)F)c1 [Compound 048, 1-[5-tert-butyl-2-[3-(dimethylaminomethyl)phenyl]pyrazol-3-yl]-3-[4-[(3-oxo-4H-pyrido[3,2-b][1,4]oxazin-8-yl)oxy]-2-(trifluoromethyl)phenyl]urea] | 1 to 10 | ++ (50% ≤ cytotoxicity < 85%) | ++ (50% ≤ cytotoxicity < 85%) | +++ (cytotoxicity ≥ 85%) | 5000 to 10000 | 1000 to 5000 | 100 to 500 | +++ (angiogenesis inhibition ≥ 80%) | 1000 to 5000 | +++ (cytotoxicity ≥ 85%) | 1000 to 5000 | ++ (50% ≤ cytotoxicity < 85%) | – |
| CSc1cc(Oc2ccnc3c2OCC(=O)N3)ccc1NC(=O)Nc1cc(C(C)(C)C)nn1-c1ccc(CN(C)C)cc1 [Compound 033, 1-[5-tert-butyl-2-[4-[(dimethylamino)methyl]phenyl]pyrazol-3-yl]-3-[2-methylsulfanyl-4-[(3-oxo-4H-pyrido[3,2-b][1,4]oxazin-8-yl)oxy]phenyl]urea] | 1 to 10 | +++ (cytotoxicity ≥ 85%) | +++ (cytotoxicity ≥ 85%) | +++ (cytotoxicity ≥ 85%) | 1000 to 5000 | 1000 to 5000 | < 100 | +++ (angiogenesis inhibition ≥ 80%) | < 1000 | +++ (cytotoxicity ≥ 85%) | 1000 to 5000 | +++ (cytotoxicity ≥ 85%) | – |
| CC(C)(C)c1cc(NC(=O)Nc2ccc(Oc3ccnc4c3OCC(=O)N4)cc2C(F)(F)F)n(-c2ccc(CN3CCOCC3)cc2)n1 [Compound 043, 1-[5-tert-butyl-2-[4-(morpholinomethyl)phenyl]pyrazol-3-yl]-3-[4-[(3-oxo-4H-pyrido[3,2-b][1,4]oxazin-8-yl)oxy]-2-(trifluoromethyl)phenyl]urea] | 10 to 100 | ++ (50% ≤ cytotoxicity < 85%) | + (20 % ≤ cytotoxicity < 50%) | + (20 % ≤ cytotoxicity < 50%) | ≥ 10000 | ≥ 10000 | 100 to 500 | +++ (angiogenesis inhibition ≥ 80%) | 1000 to 5000 | +++ (cytotoxicity ≥ 85%) | 5000 to 10000 | ++ (50% ≤ cytotoxicity < 85%) | – |
| CC(C)(C)c1cnc(NC(=O)Nc2ccc(Oc3ccnc4c3CCC(=O)N4)c3ccccc23)s1 [Compound 007, 1-(5-(tert-butyl)thiazol-2-yl)-3-(4-((7-oxo-5,6,7,8-tetrahydro-1,8-naphthyridin-4-yl)oxy)naphthalen-1-yl)urea] | 10 to 100 | +++ (cytotoxicity ≥ 85%) | + (20 % ≤ cytotoxicity < 50%) | ++ (50% ≤ cytotoxicity < 85%) | 5000 to 10000 | 1000 to 5000 | < 100 | +++ (angiogenesis inhibition ≥ 80%) | 1000 to 5000 | +++ (cytotoxicity ≥ 85%) | 1000 to 5000 | ++ (50% ≤ cytotoxicity < 85%) | – |
| CNC(=O)c1cc(Oc2ccc(NC(=O)Nc3ccc(Cl)c(C(F)(F)F)c3)cc2)ccn1 [Sorafenib, reference compound] | – | – | – | – | – | – | – | – | – | – | – | – | IC50 ([1]; commercial kinase inhibitors): < 1 nM; Cytotoxicity ([1]; commercial kinase inhibitors): +++ (cytotoxicity ≥ 85%); Cytotoxicity ([2]; 2 day-treatment, commercial kinase inhibitors): ++ (50 % ≤ cytotoxicity < 85 %); Cytotoxicity ([2]; 4 day-treatment, commercial kinase inhibitors): ++ (50 % ≤ cytotoxicity < 85 %); IC50 ([2]; 48 h, 2 day-treatment, commercial kinase inhibitors): ≥ 10000 nM; IC50 ([2]; 96 h, 4 day-treatment, commercial kinase inhibitors): 5000 to 10000 nM; IC50 ([3]; commercial kinase inhibitors): < 100 nM; Angiogenesis inhibition ([3]; commercial kinase inhibitors): + (50% > angiogenesis inhibition ≥ 20%); IC50 ([4]; commercial kinase inhibitors): 5000 to 10000 nM; Cytotoxicity ([4]; commercial kinase inhibitors): + (20 % ≤ cytotoxicity < 50 %); IC50 ([5]; commercial kinase inhibitors): 5000 to 10000 nM; Cytotoxicity ([5]; commercial kinase inhibitors): +++ (cytotoxicity ≥ 85 %) |
